Test results reported in US11566007B2, “Ras inhibitors” (Revolution Medicines, Inc., priority 2019, dated 2023).

Experiments:
NRAS WT = NRAS WT (Homo sapiens (Human), UniProt P01111+P62937); assay: Ras-Raf (BRAF RBD) disruption / FRET / MOA assay, NRAS WT; type: biochemical; details: read-out: IC50* NRAS WT FRET data
How it was run: (§1)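 Compounds (30 μM top final, 10-point 3-fold dilutions) incubated 3 h at 25° C with nucleotide-loaded Ras, cyclophilin A and BRAF RBD. Detection with 10 nM anti-His Eu-W1024 and 50 nM anti-GST allophycocyanin over another 1.5 h. Lowered TR-FRET ratio relative to DMSO wells gives IC50.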

[1] = test system: NCI-H358 cells (K-Ras G12C); assay: Potency assay: pERK in NCI-H358 cells; type: cell-based, human; details: Homo sapiens, NCI-H358; H358 KRAS G12C; read-out: pERK EC50
How it was run: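 Inhibition of cellular pERK after a 4 h treatment, detected by AlphaLISA or In-Cell Western. IC50 from a four-parameter concentration-response fit.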

NRAS Q61R = NRAS Q61R (Homo sapiens (Human), UniProt P01111+P62937, Q61R); assay: Ras-Raf (BRAF RBD) disruption / FRET / MOA assay, NRAS Q61R; type: biochemical; details: NRAS Q61R; Ras-Raf disruption/FRET/MOA assay; read-out: IC50* NRAS Q61R FRET data
How it was run: as §1

K-Ras G13C = K-Ras G13C (Homo sapiens (Human), UniProt P01116+P62937, G13C); assay: Ras-Raf (BRAF RBD) disruption / FRET / MOA assay, KRAS G13C; type: biochemical; details: KRAS G13C; Ras-Raf disruption/FRET/MOA assay; read-out: IC50* KRAS G13C FRET data
How it was run: (§2)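 A 10-point, 3-fold dilution series topping at 30 μM final was incubated 3 h at 25° C with the Ras/cyclophilin A/BRAF RBD mixture.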

NRAS G12C = NRAS G12C (Homo sapiens (Human), UniProt P01111+P62937, G12C); assay: Ras-Raf (BRAF RBD) disruption / FRET / MOA assay, NRAS G12C; type: biochemical; details: read-out: IC50* NRAS G12C FRET data
How it was run: as §2

KRAS Q61H = KRAS Q61H (Homo sapiens (Human), UniProt P01116+P62937, Q61H); assay: Ras-Raf (BRAF RBD) disruption / FRET / MOA assay, KRAS Q61H; type: biochemical; details: Ras-Raf disruption/FRET/MOA assay; class symbols; read-out: KRAS Q61H FRET data IC50
How it was run: as §1

Chain of K-Ras G13C (P01116-2 other isoform, or with tags, fused parts or gaps G13C): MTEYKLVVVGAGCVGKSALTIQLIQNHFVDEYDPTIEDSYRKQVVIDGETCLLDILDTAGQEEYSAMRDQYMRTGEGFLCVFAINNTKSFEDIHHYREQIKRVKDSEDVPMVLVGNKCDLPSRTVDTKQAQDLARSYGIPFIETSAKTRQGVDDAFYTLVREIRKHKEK
Chain of K-Ras G13C (P62937 whole entry): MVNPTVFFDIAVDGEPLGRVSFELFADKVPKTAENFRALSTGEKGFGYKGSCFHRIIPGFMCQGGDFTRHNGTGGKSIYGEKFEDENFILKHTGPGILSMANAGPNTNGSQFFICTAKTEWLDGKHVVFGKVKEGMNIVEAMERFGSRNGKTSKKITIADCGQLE
Chain of KRAS Q61H (P01116-2 other isoform, or with tags, fused parts or gaps Q61H): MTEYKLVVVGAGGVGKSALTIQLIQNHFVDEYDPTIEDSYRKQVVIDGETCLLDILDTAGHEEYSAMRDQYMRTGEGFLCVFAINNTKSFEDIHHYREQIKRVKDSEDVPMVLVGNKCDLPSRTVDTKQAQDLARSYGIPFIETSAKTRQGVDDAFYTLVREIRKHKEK
Chain of KRAS Q61H (P62937 whole entry): as the sequence (P62937 whole entry) above
Chain of NRAS Q61R (P01111 whole entry Q61R): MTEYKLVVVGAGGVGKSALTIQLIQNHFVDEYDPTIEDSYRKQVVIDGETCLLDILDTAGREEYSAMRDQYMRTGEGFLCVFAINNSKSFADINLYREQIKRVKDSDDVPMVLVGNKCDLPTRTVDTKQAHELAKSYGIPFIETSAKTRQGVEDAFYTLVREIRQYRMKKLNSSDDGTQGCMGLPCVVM
Chain of NRAS Q61R (P62937 whole entry): as the sequence (P62937 whole entry) above
Chain of NRAS WT (P01111 whole entry): as the sequence (P01111 whole entry Q61R) above, with R61Q counted along it
Chain of NRAS WT (P62937 whole entry): as the sequence (P62937 whole entry) above
Chain of NRAS G12C (P01111 whole entry G12C): as the sequence (P01111 whole entry Q61R) above, with G12C, R61Q counted along it
Chain of NRAS G12C (P62937 whole entry): as the sequence (P62937 whole entry) above

Structure (SMILES) | IC50 (NRAS WT) [nM] | EC50 [1] [nM] | IC50 (NRAS Q61R) [nM] | IC50 (K-Ras G13C) [nM] | IC50 (NRAS G12C) [nM] | IC50 (KRAS Q61H) [nM]
C=CC(=O)Nc1ccc(C(=O)N(C)[C@H](C(=O)N[C@H]2Cc3cc(O)cc(c3)-c3ccc4c(c3)c(c(-c3cccnc3[C@H](C)OC)n4CC)CC(C)(C)COC(=O)[C@@H]3CCCN(N3)C2=O)C(C)C)nc1 (atropisomer, axis not shown) [Example A252] | 100 to 1000 | < 5000 | 1000 to 10000 | < 10 | 10 to 100 | 100 to 1000
C=CC(=O)N1CCN(C(=O)N(C)[C@H](C(=O)N[C@H]2Cc3cc(O)cc(c3)-c3ccc4c(c3)c(c(-c3cccnc3[C@H](C)OC)n4CC)CC(C)(C)COC(=O)[C@@H]3CCCN(N3)C2=O)C(C)C)CC1 (atropisomer, axis not shown) [Example A262] | 10 to 100 | < 5000 | 100 to 1000 | < 10 | 10 to 100 | 10 to 100
C=CS(=O)(=O)N1CC2(CCN([C@H](C(=O)N[C@H]3Cc4cc(O)cc(c4)-c4ccc5c(c4)c(c(-c4cccnc4[C@H](C)OC)n5CC)CC(C)(C)COC(=O)[C@@H]4CCCN(N4)C3=O)C(C)C)C2=O)C1 (atropisomer, axis not shown) [Example A297] | 10 to 100 | < 5000 | 100 to 1000 | < 10 | < 10 | < 10
C=CC(=O)N1CC[C@H](C(=O)N(C)[C@H](C(=O)N[C@H]2Cc3cccc(c3)-c3ccc4c(c3)c(c(-c3cccnc3[C@H](C)OC)n4CC(F)(F)F)CC(C)(C)COC(=O)[C@@H]3CCCN(N3)C2=O)C(C)C)C1 (atropisomer, axis not shown) [Example A332] | 1000 to 10000 | < 5000 | 1000 to 10000 | 100 to 1000 | 10 to 100 | 100 to 1000
C=CC(=O)N1CC[C@H](C(=O)N(C)[C@H](C(=O)N[C@H]2Cc3cc(F)cc(c3)-c3ccc4c(c3)c(c(-c3cccnc3[C@H](C)OC)n4CC)CC(C)(C)COC(=O)[C@@H]3CCCN(N3)C2=O)C(C)C)C1 (atropisomer, axis not shown) [Example A342] | 1000 to 10000 | < 5000 | 1000 to 10000 | 100 to 1000 | 100 to 1000 | 100 to 1000
CCn1c(-c2cccnc2[C@H](C)OC)c2c3cc(ccc31)-c1cccc(c1)C[C@H](NC(=O)[C@@H](COC1CN(C(=O)C#CC(C)(C)N3CCC3)C1)C(C)C)C(=O)N1CCC[C@H](N1)C(=O)OCC(C)(C)C2 (atropisomer, axis not shown) [Example A346] | > 10000 | < 5000 | > 10000 | 1000 to 10000 | 10 to 100 | 1000 to 10000
CO[C@@H](C)c1ncccc1-c1c2c3cc(ccc3n1CC(F)(F)F)-c1cc(F)cc(c1)C[C@H](NC(=O)[C@@H](COC1CN(C(=O)C#CC(C)(C)N(C)C)C1)C(C)C)C(=O)N1CCC[C@H](N1)C(=O)OCC(C)(C)C2 (atropisomer, axis not shown) [Example A348] | 1000 to 10000 | < 5000 | > 10000 | 1000 to 10000 | < 10 | 1000 to 10000
CCn1c(-c2cccnc2[C@H](C)OC)c2c3cc(ccc31)-c1cccc(c1)C[C@H](NC(=O)[C@H](C(C)C)N1CO[C@]3(CCN(C(=O)C#CC(C)(C)N4CCC4)C3)C1=O)C(=O)N1CCC[C@H](N1)C(=O)OCC(C)(C)C2 (atropisomer, axis not shown) [Example A351] | 100 to 1000 | < 5000 | 1000 to 10000 | 100 to 1000 | < 10 | 100 to 1000
C=CC(=O)N1CC[C@@]2(CCN(C(=O)N(C)[C@H](C(=O)N[C@H]3Cc4nc(cs4)-c4ccc5c(c4)c(c(-c4cccnc4[C@H](C)OC)n5CC)CC(C)(C)COC(=O)[C@@H]4CCCN(N4)C3=O)C(C)C)C2)C1 (atropisomer, axis not shown) [Example A367] | 10 to 100 | < 5000 | 10 to 100 | 100 to 1000 | 10 to 100 | 10 to 100
